The values below come from patent US4786723A, “7-hydroxyguanine compounds, process for preparing said compounds, and anti-tumor agent containing the same” (Kanegafuchi Chemical Industry Co., Ltd., priority 1985, dated 1988).

Series [1] relates to L-1210 leukemia. The experiment in a line: Anti-tumor activity against L-1210 leukemia in mice. It counts as in vivo, mouse. The settings on record: intraperitoneal, 5 days, BDF1 female mice. The procedure: Anti-tumor activity against L-1210 leukemia in mice
BDF1 female mice weighing 18-23 g (one group: 3 mice) were used. The mice were intraperitoneally inoculated with mouse L-1210 leukemia cells (1×10^5). […] As a control, 50 mM phosphate buffer (pH 7.4) without a test compound was intraperitoneally administered likewise. Based on the data, the life-prolongation ratio of the test compound was calculated.

Series [2] in a line: Acute toxicity. The settings on record: mouse, in vivo, ip; ICR male mice weighing 18-23 g, intraperitoneally administered for one week; read-out: 50% lethal toxicity (LD50). Here is the method:
ICR male mice weighing 18-23 g were intraperitoneally administered with the test compounds for one week, and the 50% lethal toxicity (LD50 : mg/kg) was measured by a conventional method.

As usually defined, the LD50 is the dose expected to kill half of the subjects tested. For the molecule `Nc1nc(O)c2c(n1)n([C@@H]1O[C@H](CO)[C@@H](O)[C@H]1O)c[n+]2[O-]` [Compound A, 7-hydroxyguanine riboside], the Life-prolongation ratio in series [1] (1.0 mg/kg/day) came out at 128.9; in series [1] (4.0 mg/kg/day), 148.2; in series [1] (16.0 mg/kg/day) it was 148.2. Moreover, the median lethal dose (LD50) in series [2] was determined as 192 mg/kg.

As for `Nc1nc(O)c2c(n1)n([C@H]1C[C@H](O)[C@@H](CO)O1)c[n+]2[O-]` [Compound B, 7-hydroxyguanine deoxyriboside], the results for the Life-prolongation ratio in series [1] (1.0 mg/kg/day), in series [1] (4.0 mg/kg/day) and in series [1] (16.0 mg/kg/day) were 120.5, 160.2 and 168.7, respectively. Besides, the LD50 in series [2] is 172 mg/kg.
